Data reported in patent US20090175905A1, “TRANSFECTION REAGENT AND METHOD FOR ENHANCING TRANSFECTION EFFICIENCY” (National Taiwan University of Science and Technology, priority 2008, published 2009).

Legend:
KB = assay: DNA-PEI transfection with trehalose, GFP expression percentage, KB; format: cell-based; details: 20 mM trehalose
Source text: (§1) FIG. 6 presents the effects of disaccharides on the transfection efficiency of in vitro cultured CHO cells that are transfected with transfection reagents containing PEI and different disaccharides. The x-axis in FIG. 6 represents the concentrations of different disaccharide in the transfection reagent, and the y-axis represents the GFP expression percentage of the transfected CHO cells detected by a flow cytometer. The GFP expression percentage of the transfected CHO cells is used as an indicator of transfection efficiency. […] The effect of disaccharides in the transfection reagent on transfection efficiency is then analyzed. […] In other words, the cell transfection efficiency is enhanced.
(§2) FIGS. 7A and & 7B show the optimal trehalose concentrations for enhancing the transfection expression mediated by DNA-PEI complexes in different cell lines. The x-axis in FIGS. 7A and 7B […] represents the concentrations of trehalose in the transfection reagent, and the y-axis represents the GFP expression percentage of the cells as an indicator of transfection efficiency The transfection procedures in these experiments of different cell lines are identical to those described previously for CHO cells in experiment 5. […] Moreover, the extents of enhancement on the transfection efficiency depend on the cell lines. […]

lung tissues = assay: In vivo transfection by tail vein injection of gWiz-luciferase plasmid with lipid-based vectors plus disaccharides, luciferase activity in lung; parameters: species or system mouse; details: for luminescent intensity in the lung tissue (RLU per mg of lung tissue protein): DOTAP liposomes, i.v. tail vein, 24 hour
Experimental: FIG. 4A presents the effects of disaccharides on the transgene expression after intravenous injection of DOTAP-based vectors with various disaccharides by way of mouse tail vein. Various concentrations of […] and […] are respectively incorporated into the transfection reagent containing the gWiz-luciferase plasmid and DOTAP liposomes. The transfection reagent is administered via intravenous injection through the tail vein of a 4-6 weeks old ICR (CD-1) […]. The […] is sacrificed 24 hour after the intravenous injection, and the activity of luciferase in the lung tissues of the […] is observed. The x-axis in FIG. 4A represents the disaccharide concentration in the tranfection reagent, and the y-axis in FIG. 4 represents the luminescent intensity, measured by a luminometer and expressed as relative light unit (RLU) per mg of lung tissue protein. The luminescent intensity is used as an indicator of transfection efficiency. […] Accordingly, cellobiose and trehalose can improve the efficiency of cell transfection in vivo, and the transfection efficiency increases as the concentration of the disaccharide increases. FIG. 4B presents the effects of disaccharides on the transgene expression after intravenous injection of different lipid-based vectors with various disaccharides by way of mouse tail vein. DOTAP, DOTAP/chol and LPD are respectively added as a vector into the tranfection reagent containing gWiz-luciferase plasmid. A concentration of 330 mM cellobiose or trehalsoe is incorporated into the transfection reagent. The transfection reagent is then intravenously injected into the animal for cell transfection. The x-axis in FIG. 4B represents the type of the lipid-based vector, and the y-axis in FIG. 4B represents the luminescent intensity, measured by a luminometer and expressed as relative light unit (RLU) per mg of lung tissue protein.

B16F10 = assay: DNA-PEI transfection with trehalose, GFP expression percentage, B16F10; format: cell-based; details: 20 mM trehalose
Source text: as §1, §2

[1] = tested on: Chinese hamster ovary (CHO) cells; assay: In vitro transfection of CHO cells with different lipid-based vectors plus disaccharides, GFP-positive percentage; format: cell-based; details: 120 mM disaccharide; DOTAP, DOTAP/Chol, DOTAP/DOPE, DC-Chol/DOPE or LPD vector
Source text: FIGS. 3A and 3B present the effects of disaccharides on the transgene expression of cultured Chinese hamster ovary (CHO) cells subjected to an in vitro transfection of DNA with a transfection reagent containing different lipid-based vectors plus different disaccharides. The x-axis in FIGS. 3A and 3B represents the lipid composition, and the y-axis represents the GFP-positive percentage of the transfected CHO cells, which is used as an indicator for transfection efficiency. In the experiments shown in FIGS. 3A and 3B, DOTAP, DOTAP/Chol, DOTAP/DOPE, DC-Chol/DOPE or LPD applied as a vector is incorporated into a pEGFP-C1 plasmid-containing transfection reagent. Thereafter, 120 mM of various disaccharides is incorporated into the transfection reagent, and in vitro cell transfection is performed followed by detecting the cell percentage of GFP expression.

CHO cells = assay: MTT cellular viability of CHO cells transfected with DNA-PEI complexes plus trehalose; format: cell-based, Chinese hamster; details: PEI to DNA charge ratio 9:1; nontransfected CHO cells = 100%
Source text: The x-axis in FIG. 5 represents different trehalose concentrations and the y-axis represents cellular viability analyzed by the MTT assay. In the experiments, the PEI to DNA charge ratio in the transfection reagent is maintained at 9:1, and the viability of nontransfected CHO cells is set at 100%. […] In other words, the incorporation of trehalose mitigates the toxic effect of the transfection reagent.

COS-7 cells = assay: DNA-PEI transfection with trehalose, GFP expression percentage, COS-7; format: cell-based; details: 180 mM trehalose
Source text: as §1, §2

293 cells = assay: DNA-PEI transfection with trehalose, GFP expression percentage, 293; format: cell-based; details: 180 mM trehalose
Source text: as §1, §2

OC[C@H]1O[C@H](O[C@H]2O[C@H](CO)[C@@H](O)[C@H](O)[C@H]2O)[C@H](O)[C@@H](O)[C@@H]1O [trehalose]
enhancement of percentage of GFP positive cells (KB): ~13%
effect on transfection efficiency (luminescent intensity, lung) (lung tissues; 330 mM disaccharide, DOTAP, DOTAP/Chol or LPD vector, i.v.): significant increase in transfection efficiency
luminescent intensity in the lung tissue (RLU per mg of lung tissue protein) (lung tissues; 180 mM disaccharide): increase the luminescent intensity significantly
luminescent intensity in the lung tissue (RLU per mg of lung tissue protein) (lung tissues; 330 mM disaccharide): increases noticeably
enhancement of percentage of GFP positive cells (B16F10): ~42%
effect on transfection efficiency (GFP-positive percentage) [1]: significantly enhances the transfection efficiency
cellular viability analyzed by the MTT assay (CHO cells): increases the cellular viability
enhancement of percentage of GFP expressed cells (COS-7 cells): 37%
enhancement of percentage of GFP expressed cells (293 cells): 32%
